Reference: ChEMBL document CHEMBL3414527, “Engineering potent and selective analogues of GpTx-1, a tarantula venom peptide antagonist of the Na(V)1.7 sodium channel” (J Med Chem, 2015)
Bridge positions count the residues as written; N and C are the ends. Peptide text beside a SMILES is read from it.

Key:
[1] = target: T1, Sodium channel protein type 9 subunit alpha (Homo sapiens, UniProt Q15858); assay: Inhibition of human NaV1.7 by patchXpress 700A electrophysiology method
[2] = target: Sodium channel protein type 5 subunit alpha (Homo sapiens, UniProt Q14524); assay: Inhibition of human NaV1.5 at -140 mV holding potential by whole-cell patch clamp assay
[3] = Stability in mouse plasma assessed as intact compound remaining at 37 degC after 24 hrs by LC-MS method; assay type: ADME, cell-free; settings: read-out: Stability
[4] = target: Sodium channel protein type 9 subunit alpha (Mus musculus, UniProt Q62205); assay: Inhibition of NaV1.7 in C57BL/6 mouse DRG neurons at -140 mV holding potential by whole-cell patch clamp assay
[5] = target: T1, Sodium channel protein type 9 subunit alpha; assay: Inhibition of human NaV1.7 at -140 mV holding potential by whole-cell patch clamp assay
[6] = Stability in human plasma assessed as intact compound remaining at 37 degC after 24 hrs by LC-MS method; assay type: ADME, cell-free; settings: read-out: Stability
[7] = target: Sodium channel protein type 4 subunit alpha (Homo sapiens, UniProt P35499); assay: Inhibition of human NaV1.4 at -140 mV holding potential by whole-cell patch clamp assay
Sodium channel protein type 4 subunit alpha, sequence (P35499 whole entry): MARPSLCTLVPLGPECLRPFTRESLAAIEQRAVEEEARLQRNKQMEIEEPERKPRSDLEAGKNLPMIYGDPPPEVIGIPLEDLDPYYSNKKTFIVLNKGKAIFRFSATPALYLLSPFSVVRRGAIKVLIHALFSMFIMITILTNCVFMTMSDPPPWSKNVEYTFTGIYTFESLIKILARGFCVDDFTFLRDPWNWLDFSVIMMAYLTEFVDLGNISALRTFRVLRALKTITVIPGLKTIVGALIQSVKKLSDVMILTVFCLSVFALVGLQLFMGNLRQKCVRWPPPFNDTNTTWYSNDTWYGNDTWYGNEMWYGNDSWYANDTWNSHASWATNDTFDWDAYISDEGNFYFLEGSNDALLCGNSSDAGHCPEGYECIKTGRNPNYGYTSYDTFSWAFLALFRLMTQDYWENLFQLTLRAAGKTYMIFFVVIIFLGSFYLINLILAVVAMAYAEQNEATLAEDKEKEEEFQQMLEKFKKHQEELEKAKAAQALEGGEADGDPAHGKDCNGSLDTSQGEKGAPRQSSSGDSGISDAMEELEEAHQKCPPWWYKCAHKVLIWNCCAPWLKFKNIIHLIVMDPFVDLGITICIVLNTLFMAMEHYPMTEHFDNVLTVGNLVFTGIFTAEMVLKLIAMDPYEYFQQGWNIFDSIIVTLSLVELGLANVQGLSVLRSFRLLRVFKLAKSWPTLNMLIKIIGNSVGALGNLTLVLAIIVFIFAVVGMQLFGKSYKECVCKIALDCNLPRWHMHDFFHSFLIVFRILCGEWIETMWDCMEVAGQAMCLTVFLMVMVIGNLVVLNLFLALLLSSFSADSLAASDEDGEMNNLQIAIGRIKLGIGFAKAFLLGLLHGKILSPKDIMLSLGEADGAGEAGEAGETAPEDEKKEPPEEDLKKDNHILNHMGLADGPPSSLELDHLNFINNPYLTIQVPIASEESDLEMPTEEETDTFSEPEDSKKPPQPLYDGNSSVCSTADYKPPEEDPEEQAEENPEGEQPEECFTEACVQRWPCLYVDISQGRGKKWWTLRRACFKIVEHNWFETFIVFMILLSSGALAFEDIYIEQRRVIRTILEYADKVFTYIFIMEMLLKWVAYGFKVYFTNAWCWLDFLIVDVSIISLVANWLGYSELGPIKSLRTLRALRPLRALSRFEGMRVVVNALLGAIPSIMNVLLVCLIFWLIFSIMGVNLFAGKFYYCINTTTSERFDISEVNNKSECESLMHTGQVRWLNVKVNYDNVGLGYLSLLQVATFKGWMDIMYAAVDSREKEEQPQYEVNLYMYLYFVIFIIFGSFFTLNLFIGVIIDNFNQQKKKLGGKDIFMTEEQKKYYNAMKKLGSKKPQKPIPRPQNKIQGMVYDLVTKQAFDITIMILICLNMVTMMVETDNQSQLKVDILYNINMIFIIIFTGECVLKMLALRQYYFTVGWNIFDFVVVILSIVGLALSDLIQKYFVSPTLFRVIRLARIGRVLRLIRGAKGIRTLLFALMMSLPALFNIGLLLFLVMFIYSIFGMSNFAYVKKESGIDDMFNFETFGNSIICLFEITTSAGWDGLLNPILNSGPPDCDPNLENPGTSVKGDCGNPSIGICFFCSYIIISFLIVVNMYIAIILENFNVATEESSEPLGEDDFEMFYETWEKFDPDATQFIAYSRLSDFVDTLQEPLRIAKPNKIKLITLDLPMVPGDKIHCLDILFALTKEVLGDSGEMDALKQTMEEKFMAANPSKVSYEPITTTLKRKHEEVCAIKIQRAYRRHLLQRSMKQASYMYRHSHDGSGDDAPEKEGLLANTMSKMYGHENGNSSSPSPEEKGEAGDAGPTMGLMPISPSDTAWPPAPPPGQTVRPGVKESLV

T1 sequence (Q15858 whole entry): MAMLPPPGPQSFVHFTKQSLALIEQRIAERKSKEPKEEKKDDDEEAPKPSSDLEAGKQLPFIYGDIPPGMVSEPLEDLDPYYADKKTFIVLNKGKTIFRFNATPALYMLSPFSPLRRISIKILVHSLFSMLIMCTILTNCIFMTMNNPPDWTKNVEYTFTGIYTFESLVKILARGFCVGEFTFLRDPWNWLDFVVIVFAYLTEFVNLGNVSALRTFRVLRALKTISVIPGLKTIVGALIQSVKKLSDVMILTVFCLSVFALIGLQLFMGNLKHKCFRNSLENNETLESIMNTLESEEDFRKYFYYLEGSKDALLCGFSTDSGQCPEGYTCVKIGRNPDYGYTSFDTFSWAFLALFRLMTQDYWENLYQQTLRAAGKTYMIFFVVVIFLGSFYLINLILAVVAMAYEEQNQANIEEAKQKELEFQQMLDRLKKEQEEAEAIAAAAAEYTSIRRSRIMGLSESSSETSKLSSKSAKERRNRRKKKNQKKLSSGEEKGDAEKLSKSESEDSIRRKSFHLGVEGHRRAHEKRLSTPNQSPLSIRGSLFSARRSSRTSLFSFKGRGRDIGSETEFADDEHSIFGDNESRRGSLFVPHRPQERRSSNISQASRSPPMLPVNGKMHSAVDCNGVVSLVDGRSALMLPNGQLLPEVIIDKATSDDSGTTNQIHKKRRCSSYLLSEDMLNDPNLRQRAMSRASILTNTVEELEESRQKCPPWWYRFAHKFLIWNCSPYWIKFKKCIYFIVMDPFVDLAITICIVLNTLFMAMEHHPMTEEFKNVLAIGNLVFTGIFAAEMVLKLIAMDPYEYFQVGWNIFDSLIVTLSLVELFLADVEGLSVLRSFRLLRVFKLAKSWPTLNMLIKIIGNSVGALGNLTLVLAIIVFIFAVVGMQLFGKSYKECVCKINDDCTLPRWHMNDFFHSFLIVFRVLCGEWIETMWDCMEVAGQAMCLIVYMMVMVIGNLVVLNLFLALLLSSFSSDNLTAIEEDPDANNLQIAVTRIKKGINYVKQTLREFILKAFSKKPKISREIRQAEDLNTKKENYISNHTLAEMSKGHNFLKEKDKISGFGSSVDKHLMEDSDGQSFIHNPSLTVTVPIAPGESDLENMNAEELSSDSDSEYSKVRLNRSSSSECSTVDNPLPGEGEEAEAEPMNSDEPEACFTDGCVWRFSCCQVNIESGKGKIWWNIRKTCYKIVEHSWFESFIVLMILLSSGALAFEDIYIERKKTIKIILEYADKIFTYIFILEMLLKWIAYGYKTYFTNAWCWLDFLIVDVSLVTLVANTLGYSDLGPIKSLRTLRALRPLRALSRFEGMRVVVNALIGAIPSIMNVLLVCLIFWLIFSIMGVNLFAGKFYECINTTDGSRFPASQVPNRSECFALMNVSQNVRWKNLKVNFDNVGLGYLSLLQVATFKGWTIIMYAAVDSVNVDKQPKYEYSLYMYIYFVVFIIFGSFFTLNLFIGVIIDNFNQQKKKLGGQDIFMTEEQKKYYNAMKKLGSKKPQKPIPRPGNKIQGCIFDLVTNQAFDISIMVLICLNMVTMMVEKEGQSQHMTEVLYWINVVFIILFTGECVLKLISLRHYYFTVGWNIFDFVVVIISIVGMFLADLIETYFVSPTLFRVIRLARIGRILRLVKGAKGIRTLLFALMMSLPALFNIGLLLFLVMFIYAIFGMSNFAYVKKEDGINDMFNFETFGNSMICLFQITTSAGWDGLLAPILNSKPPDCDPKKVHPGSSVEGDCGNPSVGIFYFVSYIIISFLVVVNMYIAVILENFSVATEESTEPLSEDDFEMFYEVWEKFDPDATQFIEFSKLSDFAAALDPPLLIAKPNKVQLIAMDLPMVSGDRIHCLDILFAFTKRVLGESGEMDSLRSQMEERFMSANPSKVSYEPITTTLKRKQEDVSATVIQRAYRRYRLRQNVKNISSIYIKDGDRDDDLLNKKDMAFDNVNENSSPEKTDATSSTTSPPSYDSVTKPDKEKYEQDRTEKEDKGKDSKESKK

SMILES	IC50 [1]	IC50 [2]	remaining at 24 h [3]	IC50 [4]	IC50 [5]	remaining at 24 h [6]	IC50 [7]
CC[C@H](C)[C@@H]1NC(=O)[C@@H]2CSSC[C@@H]3NC(=O)[C@H](C(C)C)NC(=O)[C@H](CC(C)C)NC(=O)[C@H](CC(N)=O)NC(=O)[C@@H]4CCCN4C(=O)[C@H](CCCNC(=N)N)NC(=O)[C@H](CSSC[C@H](NC(=O)[C@@H](N)CC(=O)O)C(=O)N[C@@H](CC(C)C)C(=O)NCC(=O)N[C@@H](C)C(=O)N[C@@H](CCSC)C(=O)N[C@@H](CCCNC(=N)N)C(=O)N[C@@H](CCCCN)C(=O)N2)NC(=O)[C@H](CSSC[C@@H](C(=O)N[C@@H](CCCCN)C(=O)N[C@@H](Cc2ccc(O)cc2)C(=O)N[C@H](C(=O)N[C@@H](Cc2ccccc2)C(N)=O)C(C)C)NC(=O)[C@H](Cc2c[nH]c4ccccc24)NC(=O)[C@H](CCCCN)NC(=O)[C@H](Cc2cnc[nH]2)NC(=O)[C@H]([C@@H](C)O)NC(=O)[C@H](CCCNC(=N)N)NC(=O)[C@H](CO)NC3=O)NC(=O)[C@H](CCCCN)NC(=O)[C@H](CC(=O)O)NC(=O)[C@H](CC(N)=O)NC(=O)[C@H](CC(=O)O)NC(=O)[C@@H]2CCCN2C1=O (H-DCLGAMRKCIPDNDKCCRPNLVCSRTHKWCKYVF-NH2; disulfide 2-17, 9-23, 16-30)	27 nM	27000 nM	99%	22.6 nM	630 nM	99%	–
CC[C@H](C)[C@H](NC(=O)[C@H](CCC(N)=O)NC(=O)[C@H](Cc1ccc(O)cc1)NC(=O)[C@H](CCCCN)NC(=O)[C@@H]1CSSC[C@@H]2NC(=O)[C@H](CCC(N)=O)NC(=O)[C@H](CC(=O)O)NC(=O)[C@H](CC(N)=O)NC(=O)[C@H](CO)NC(=O)[C@@H]3CCCN3C(=O)[C@H](CC(N)=O)NC(=O)[C@@H]3CSSC[C@H](NC(=O)[C@H](C(C)C)NC(=O)[C@H](CC(C)C)NC(=O)[C@H](CCCCN)NC(=O)[C@H](CO)NC(=O)[C@H](CO)NC(=O)[C@H](CCCCN)NC(=O)[C@H](CSSC[C@H](NC(=O)[C@@H](N)CCC(=O)O)C(=O)N[C@@H](CC(C)C)C(=O)N[C@@H](CCC(=O)O)C(=O)N[C@@H]([C@@H](C)CC)C(=O)N[C@@H](Cc4ccccc4)C(=O)N[C@@H](CCCCN)C(=O)N[C@@H](C)C(=O)N3)NC2=O)C(=O)N[C@@H](CO)C(=O)N[C@@H](CCCNC(=N)N)C(=O)N[C@@H](CCCCN)C(=O)N[C@@H]([C@@H](C)O)C(=O)N[C@@H](CCCNC(=N)N)C(=O)N[C@@H](Cc2c[nH]c3ccccc23)C(=O)N1)C(=O)O	–	25000 nM	–	–	33 nM	–	3900 nM
CSCC[C@@H]1NC(=O)CNC(=O)[C@H](CCC(=O)O)NC(=O)[C@@H]2CSSC[C@H](NC(=O)[C@@H](N)Cc3ccc(O)cc3)C(=O)N[C@@H](CCC(N)=O)C(=O)N[C@@H](CCCCN)C(=O)N[C@@H](Cc3c[nH]c4ccccc34)C(=O)N[C@@H](CCSC)C(=O)N[C@@H](Cc3c[nH]c4ccccc34)C(=O)N[C@@H]([C@@H](C)O)C(=O)N[C@H]3CSSC[C@H](NC(=O)[C@H](C(C)C)NC1=O)C(=O)N[C@@H](CCCNC(=N)N)C(=O)N[C@@H](CC(C)C)C(=O)N[C@@H](Cc1c[nH]c4ccccc14)C(=O)N[C@H](C(=O)N[C@@H](CCCCN)C(=O)N[C@@H](CCCCN)C(=O)N[C@@H](CCCCN)C(=O)N[C@@H](CC(C)C)C(=O)N[C@@H](Cc1c[nH]c4ccccc14)C(=O)O)CSSC[C@H](NC(=O)[C@H](CCCCN)NC(=O)[C@H](CCCNC(=N)N)NC(=O)[C@H](CCC(=O)O)NC(=O)[C@H](CO)NC(=O)[C@H](CC(=O)O)NC3=O)C(=O)N2	–	90 nM	–	–	–	–	30 nM
N=C(N)NCCC[C@@H]1NC(=O)[C@H](CO)NC(=O)[C@H](Cc2c[nH]cn2)NC(=O)[C@H](CC(=O)O)NC(=O)[C@H](CCCNC(=N)N)NC(=O)[C@H]2CSSC[C@@H]3NC(=O)[C@@H](N)CSSC[C@H](NC1=O)C(=O)N[C@H](C(=O)O)CSSC[C@H](NC(=O)[C@H](CC(N)=O)NC3=O)C(=O)N[C@@H](CO)C(=O)N[C@@H](CO)C(=O)N[C@@H](CCCCN)C(=O)N[C@@H](Cc1c[nH]c3ccccc13)C(=O)N2	–	> 25000 nM	–	–	460 nM	–	20 nM
CC[C@@H]1NC(=O)CNC(=O)[C@H](CC(C)C)NC(=O)[C@@H](NC(=O)[C@@H](N)CC(=O)O)CSSC[C@@H]2NC(=O)[C@@H]3CSSC[C@@H](C(=O)N[C@@H](CCCCN)C(=O)N[C@@H](Cc4ccc(O)cc4)C(=O)N[C@H](C(=O)N[C@@H](Cc4ccccc4)C(N)=O)C(C)C)NC(=O)[C@H](Cc4c[nH]c5ccccc45)NC(=O)[C@H](CCCCN)NC(=O)[C@H](Cc4cnc[nH]4)NC(=O)[C@H]([C@@H](C)O)NC(=O)[C@H](CCCNC(=N)N)NC(=O)[C@H](CO)NC(=O)[C@H](CSSC[C@H](NC(=O)[C@H](CCCCN)NC(=O)[C@H](CCCNC(=N)N)NC(=O)[C@H](CCSC)NC1=O)C(=O)N[C@@H]([C@@H](C)CC)C(=O)N1CCC[C@H]1C(=O)N[C@@H](CC(=O)O)C(=O)N[C@@H](CC(N)=O)C(=O)N[C@@H](CC(=O)O)C(=O)N[C@@H](CCCCN)C(=O)N3)NC(=O)[C@H](C(C)C)NC(=O)[C@H](CC(C)C)NC(=O)[C@H](CC(N)=O)NC(=O)[C@@H]1CCCN1C(=O)[C@H](CCCNC(=N)N)NC2=O	–	> 10000 nM	–	–	79 nM	–	–
